# Measured values published in patent US20220364132A1, “METHOD FOR FORMING A STORAGE STABLE H[…] A LIGNO[…]” (Sekab E- Technology AB, priority 2019, published 2022).
# Tests used:
# Assay type in all cases: cell-based
# [1] = system: Lactobacillus; assay: Bacterial contamination in a non-separated (non-detoxified) spruce hydrolysate, lactic acid by HPLC; details: FIG. 2
# Experimental: Non-detoxified spruce hydrolysate (with added 2 g/l yeast extract; 0.5% sodium phosphate; 0.5 g/l diammonium phosphate; 2 g/l peptone and diluted with water to 30 g/l glucose) was filter sterilized and used to represent feed media. An inoculum was prepared using MRS media and the same contaminated sample as used in previous experiments, and was incubated at 37° C. overnight (16 hours). Sodium sulfite was added at concentrations of 0 mM, 5 mM, 10 mM, 20 mM and 40 mM, respectively, to 25 ml serum bottles with 22.5 ml of the feed media. After inoculation, the bottles were placed on a multiple magnetic stirring plate at room temperature, with samples taken periodically and analyzed using HPLC.
# The hydrolysate used may represent a feed stream where no separation of the pretreatment liquid and solid component has taken place. In other words, hydrolysis and fermentation inhibitors are still present in the feed stream.
# [2] = system: lactic acid bacteria; assay: Bacterial contamination in a sugar-rich hydrolysate (synthetic media), glucose and lactic acid by HPLC; details: 5, 10, 20 and 40 mM, room temperature, 11 days, FIG. 3
# Description: The aim of this experiment was to test the potential of sodium sulfite to control bacterial contamination in the storage tanks which contain sugar-rich hydrolysate streams before they are used in fermentations. The hydrolysate is representative of a hydrolysate according to the present disclosure.
# (§1) To test the theory, synthetic media was made containing about 90 g/l glucose, 0.5% sodium phosphate/phosphoric acid buffer (pH 5.5), 0.5 g/l diammonium phosphate, 2 g/l yeast extract and 2 g/l peptone. This solution (45 ml) was added to 50 ml serum bottles, along with a magnetic stirrer bar, and autoclaved, where after sodium sulfite at concentrations of 5, 10, 20 and 40 mM was added, while some bottles had no sulfite added, which served as control (0 mM). […] This culture was incubated at 37° C. for 36 hours and used to inoculate all the serum bottles (10% v/v). The serum bottles were then sealed with an airtight septum and a metal ring clamp and two needles were inserted through the septum to allow for sampling. The serum bottles were placed on a magnetic stirrer plate at room temperature (since storage tanks are typically kept at room temperature), with stirring at 100 rpm. Samples were taken periodically and analyzed for glucose and lactic acid using HPLC. Experiments were performed in triplicate. The experiments were continued for 11 days.
# [3] = system: Lactobacillus sp.; assay: Bacterial contamination in a sugar-rich hydrolysate comprising 10% non-detoxified spruce hydrolysate, glucose by HPLC
# Experimental: as §1
# Experiments in this example were performed according to the description in example 2 with the difference that the sugar-rich hydrolysate contained 10% (v/v) non-detoxified spruce hydrolysate. This was done to simulate sugar-rich hydrolysate with some inhibitory impurities present that may arise from insufficient separation and/or washing.
# In the “Experiment A” samples, serum bottles were inoculated with Lactobacillus sp. at time 0 hours and incubated at room temperature for 21 days. Samples were taken periodically and analyzed for glucose and lactic acid (not shown here) using HPLC.
# In the “Experiment B” samples, serum bottles were inoculated twice—firstly on the first day and again two weeks later, to simulate a re-infection and test the longevity of the inhibitory effect of sodium sulfite.
# In Experiment “C”, the third group of serum bottles were inoculated after two weeks of storage at room temperature and inoculated with Lactobacillus (after 14 days).
compound,measurement,setting,value
O=S([O-])[O-].[Na+].[Na+] [sodium sulfite],antimicrobial effect on the hydrolysate,"[1]; 5 to 40 mM sodium sulfite, room temperature",no antimicrobial effect
same,bacterial growth,[1]; sodium sulfite added (5 to 40 mM),increased bacterial growth
same,concentration of lactic acid,[2],0 g/L
same,growth of lactic acid bacteria,[2],inhibited the growth
same,effect on Lactobacillus sp. growth,"[3]; 40 mM, hydrolysate with 10% (v/v) non-detoxified spruce hydrolysate, Experiments A-C",antimicrobial effect
same,growth relative to sample with no sulfite (detoxification effect),"[3]; 5-20 mM, hydrolysate with 10% (v/v) non-detoxified spruce hydrolysate",grew faster
same,Glucose,"[3]; Experiment A, 5 mM, 0 h",83.8 g/L
same,Glucose,"[3]; Experiment A, 5 mM, 168 h",71.9 g/L
same,Glucose,"[3]; Experiment A, 5 mM, 336 h",66.3 g/L
same,Glucose,"[3]; Experiment A, 5 mM, 508 h",65.9 g/L
same,Glucose,"[3]; Experiment A, 10 mM, 0 h",84.8 g/L
same,Glucose,"[3]; Experiment A, 10 mM, 168 h",72.9 g/L
same,Glucose,"[3]; Experiment A, 10 mM, 336 h",64.6 g/L
same,Glucose,"[3]; Experiment A, 10 mM, 508 h",63.8 g/L
same,Glucose,"[3]; Experiment A, 20 mM, 0 h",83.4 g/L
same,Glucose,"[3]; Experiment A, 20 mM, 168 h",75.2 g/L
same,Glucose,"[3]; Experiment A, 20 mM, 336 h",70.1 g/L
same,Glucose,"[3]; Experiment A, 20 mM, 508 h",67.2 g/L
same,Glucose,"[3]; Experiment A, 40 mM, 0 h",82.0 g/L
same,Glucose,"[3]; Experiment A, 40 mM, 168 h",80.1 g/L
same,Glucose,"[3]; Experiment A, 40 mM, 336 h",77.0 g/L
same,Glucose,"[3]; Experiment A, 40 mM, 508 h",82.5 g/L
same,Glucose,"[3]; Experiment B, 5 mM, 0 h",83.8 g/L
same,Glucose,"[3]; Experiment B, 5 mM, 168 h",72.6 g/L
same,Glucose,"[3]; Experiment B, 5 mM, 336 h",66.8 g/L
same,Glucose,"[3]; Experiment B, 5 mM, 508 h",69.0 g/L
same,Glucose,"[3]; Experiment B, 10 mM, 0 h",81.7 g/L
same,Glucose,"[3]; Experiment B, 10 mM, 168 h",71.5 g/L
same,Glucose,"[3]; Experiment B, 10 mM, 336 h",67.9 g/L
same,Glucose,"[3]; Experiment B, 10 mM, 508 h",73.4 g/L
same,Glucose,"[3]; Experiment B, 20 mM, 0 h",83.1 g/L
same,Glucose,"[3]; Experiment B, 20 mM, 168 h",69.0 g/L
same,Glucose,"[3]; Experiment B, 20 mM, 336 h",72.4 g/L
same,Glucose,"[3]; Experiment B, 20 mM, 508 h",72.1 g/L
same,Glucose,"[3]; Experiment B, 40 mM, 0 h",85.2 g/L
same,Glucose,"[3]; Experiment B, 40 mM, 168 h",86.6 g/L
same,Glucose,"[3]; Experiment B, 40 mM, 336 h",86.2 g/L
same,Glucose,"[3]; Experiment B, 40 mM, 508 h",86.3 g/L
same,Glucose,"[3]; Experiment C, 5 mM, 0 h",85.4 g/L
same,Glucose,"[3]; Experiment C, 5 mM, 168 h",84.8 g/L
same,Glucose,"[3]; Experiment C, 5 mM, 336 h",83.4 g/L
same,Glucose,"[3]; Experiment C, 5 mM, 508 h",77.1 g/L
same,Glucose,"[3]; Experiment C, 10 mM, 0 h",84.8 g/L
same,Glucose,"[3]; Experiment C, 10 mM, 168 h",81.7 g/L
same,Glucose,"[3]; Experiment C, 10 mM, 336 h",81.9 g/L
same,Glucose,"[3]; Experiment C, 10 mM, 508 h",75.5 g/L
same,Glucose,"[3]; Experiment C, 20 mM, 0 h",85.9 g/L
same,Glucose,"[3]; Experiment C, 20 mM, 168 h",82.3 g/L
same,Glucose,"[3]; Experiment C, 20 mM, 336 h",83.5 g/L
same,Glucose,"[3]; Experiment C, 20 mM, 508 h",79.5 g/L
same,Glucose,"[3]; Experiment C, 40 mM, 0 h",80.9 g/L
same,Glucose,"[3]; Experiment C, 40 mM, 168 h",81.0 g/L
same,Glucose,"[3]; Experiment C, 40 mM, 336 h",85.6 g/L
